Measured values reported in patent US7851637B2, “Compounds and methods for inhibiting the interaction of BCL proteins with binding partners” (Infinity Pharmaceuticals, Inc., priority 2004, dated 2010).

Tests used:
Bcl-2 = Bcl-2 (Homo sapiens, UniProt P10415); assay: Bcl-2 binding affinity analysis (fluorescence polarization binding assay)
From the text: (§1) Bcl-2 and Bcl-xL binding can be determined using a variety of known methods. One such assay is a sensitive and quantitative in vitro binding assay using fluorescence polarization (FP) described by Wang, J. -L.; Zhang, Z -J.; Choksi, S.; Sjam. S.; Lu, Z.; Croce, C. M.; Alnenri, E. S.; Komgold, R.; Huang, Z. Cell permeable Bcl-2 binding peptides: a chemical approach to apoptosis induction in tumor cells. Cancer Res. 2000, 60, 1498-1502).
(§2) Bcl-2 and Bcl-xL binding affinity analysis data is presented below for various compounds of the invention.

Bcl-xL = Bcl-xL (Homo sapiens, UniProt Q07817); assay: Bcl-xL binding affinity analysis (fluorescence polarization binding assay); parameters: scale not given here
From the text: as §1, §2

Chain of Bcl-2 (P10415 whole entry): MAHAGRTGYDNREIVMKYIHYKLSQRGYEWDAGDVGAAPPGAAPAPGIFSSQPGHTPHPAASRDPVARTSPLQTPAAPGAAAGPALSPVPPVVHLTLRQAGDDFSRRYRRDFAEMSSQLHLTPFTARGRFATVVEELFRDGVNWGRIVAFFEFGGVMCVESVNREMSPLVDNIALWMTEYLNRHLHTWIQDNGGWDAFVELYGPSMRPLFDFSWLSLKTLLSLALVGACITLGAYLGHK
Chain of Bcl-xL (Q07817 whole entry): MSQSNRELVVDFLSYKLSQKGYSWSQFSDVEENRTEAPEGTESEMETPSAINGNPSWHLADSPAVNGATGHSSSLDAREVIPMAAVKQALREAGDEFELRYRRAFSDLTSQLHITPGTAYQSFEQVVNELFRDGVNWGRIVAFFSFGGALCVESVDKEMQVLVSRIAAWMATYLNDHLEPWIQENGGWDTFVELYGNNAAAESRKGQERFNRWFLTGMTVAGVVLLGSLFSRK

Compound | Ki (Bcl-2) [nM] | Bcl-XL binding affinity Ki (Bcl-xL)
C[C@H](O)[C@@H]1[C@H](CO)ON(Cc2ccc(C#CCN(C)Cc3ccccc3)cc2)[C@@H]1C(=O)NCCC1=CCCCC1 [Compound 38] | > 50000 | ♯♯
C[C@@H]1[C@@H](NC(=O)[C@@H]2C([C@H](C)O)[C@H](CO)ON2Cc2cccc(CN(Cc3ccccc3)C[C@@H]3CCCN3C(=O)OCc3ccccc3)c2)C[C@H]2C[C@@H]1C2(C)C (stereo partly shown) [Compound 439] | 800 to 6000 | ♯
C[C@@H]1[C@@H](NC(=O)[C@@H]2C(CO)[C@H]([C@H](C)O)ON2Cc2cccc(C#CC(C)(O)c3ccccc3)c2)C[C@H]2C[C@@H]1C2(C)C (stereo partly shown) [Compound 35] | > 50000 | ♯
CC(C)C[C@@H](CN(C)C)N(Cc1ccccc1)Cc1cccc(CN2O[C@@H](CO)[C@@H]([C@H](C)O)[C@H]2C(=O)NCCCN(C)c2ccccc2)c1 [Compound 531] | 800 to 6000 | ♯
COCCOCCOc1cccc(CN(CCN(C)C)Cc2cccc(CN3OC(CO)C(C(C)O)C3C(=O)NC3CC4CC(C3C)C4(C)C)c2)c1 (stereo not shown) [Compound 407] | < 800 | ♯
C[C@@H](O)[C@H]1[C@@H](CO)ON(Cc2cccc(C#C[C@@H](O)c3ccccc3)c2)[C@H]1C(=O)NCCCN(C)c1ccccc1 [Compound 48] | 800 to 6000 | ♯
C[C@@H]1[C@@H](NC(=O)[C@@H]2[C@H]([C@H](C)O)[C@H](CO)ON2Cc2cccc(-c3ccc(C(N)=O)cc3)c2)C[C@H]2C[C@@H]1C2(C)C [Compound 134] | < 800 | ♯
C[C@@H]1[C@@H](NC(=O)[C@@H]2[C@H]([C@H](C)O)[C@H](CO)ON2Cc2cccc(-c3cccc(C(=O)N[C@H]4CCN(C)C4)c3)c2)C[C@H]2C[C@@H]1C2(C)C [Compound 126] | < 800 | ♯
C[C@@H]1[C@@H](NC(=O)[C@@H]2[C@H]([C@H](C)O)[C@H](CO)ON2Cc2cccc(-c3cccc(C(=O)N[C@@H]4CCN(C)C4)c3)c2)C[C@H]2C[C@@H]1C2(C)C [Compound 137] | < 800 | ♯
CON(C)C(=O)c1ccc(-c2cccc(CN3O[C@@H](CO)[C@@H]([C@H](C)O)[C@H]3C(=O)N[C@H]3C[C@H]4C[C@@H]([C@@H]3C)C4(C)C)c2)cc1 [Compound 124] | < 800 | ♯
CC(=O)Nc1ccc(-c2cccc(CN3O[C@@H](CO)[C@@H]([C@H](C)O)[C@H]3C(=O)NC3C[C@H]4C[C@@H]([C@@H]3C)C4(C)C)c2)cc1 (stereo partly shown) [Compound 294] | < 800 | ♯
CC(O)C1C(CO)ON(Cc2cccc(CNC(Cc3ccccc3)CN(C)C)c2)C1C(=O)NC1CC2CC(C1C)C2(C)C (stereo not shown) [Compound 467] | < 800 | ♯
C[C@@H]1[C@@H](NC(=O)[C@@H]2[C@H]([C@H](C)O)[C@H](CO)ON2CCCCN(CCN(C)C)Cc2ccccc2)C[C@H]2C[C@@H]1C2(C)C [Compound 547] | 800 to 6000 | ♯
C[C@@H]1[C@@H](NC(=O)[C@@H]2[C@H]([C@H](C)O)[C@H](CO)ON2Cc2cccc(CN(CCc3ccccc3)CCN(C)C)c2)C[C@H]2C[C@@H]1C2(C)C [Compound 209] | < 800 | ♯
CC(O)[C@H]1[C@@H](CO)ON(Cc2cccc(C#CC(O)c3ccc(F)cc3)c2)[C@H]1C(=O)NCCCN(C)c1ccccc1 (stereo partly shown) [Compound 29] | 800 to 6000 | ♯
C[C@@H]1[C@@H](NC(=O)[C@@H]2[C@H]([C@H](C)O)[C@H](CO)ON2Cc2cccc(CN(CCN(C)C)CCC(C)(C)C)c2)C[C@H]2C[C@@H]1C2(C)C [Compound 203] | < 800 | ♯

The next lines start with the values.

Ki (Bcl-2) [nM] | Bcl-XL binding affinity Ki (Bcl-xL) | Compound
< 800 | ♯♯ | C[C@@H]1[C@@H](NC(=O)[C@@H]2[C@H]([C@H](C)O)[C@H](CO)ON2Cc2cccc(-c3cccc(C(=O)NCCCNC(=O)OC(C)(C)C)c3)c2)C[C@H]2C[C@@H]1C2(C)C [Compound 154]
< 800 | ♯ | CC(O)C1C(CO)ON(Cc2cccc(CN3CC(c4ccccc4)CC3CN(C)C)c2)C1C(=O)NC1CC2CC(C1C)C2(C)C (stereo not shown) [Compound 457]
< 800 | ♯ | C[C@@H]1[C@@H](NC(=O)[C@@H]2[C@H]([C@H](C)O)[C@H](CO)ON2Cc2cccc(-c3ccc(C(=O)N(CCN(C)C)Cc4ccccc4)cc3)c2)C[C@H]2C[C@@H]1C2(C)C [Compound 185]
< 800 | ♯ | C[C@@H]1[C@@H](NC(=O)[C@@H]2[C@H]([C@H](C)O)[C@H](CO)ON2Cc2cccc(-c3ccc(C(=O)N4CCOCC4)cc3)c2)C[C@H]2C[C@@H]1C2(C)C [Compound 109]
< 800 | ♯ | COCCOc1cccc(CN(CCN(C)C)Cc2cccc(CN3OC(CO)C(C(C)O)C3C(=O)NC3CC4CC(C3C)C4(C)C)c2)c1 (stereo not shown) [Compound 406]
< 800 | ♯ | C[C@@H]1[C@@H](NC(=O)[C@@H]2[C@H]([C@H](C)O)[C@H](CO)ON2Cc2cccc(-c3cccc(C(=O)NCCCCN(C)C)c3)c2)C[C@H]2C[C@@H]1C2(C)C [Compound 113]
< 800 | ♯ | C[C@@H]1[C@@H](NC(=O)[C@@H]2[C@H]([C@H](C)O)[C@H](CO)ON2Cc2cccc(-c3cccc(C(=O)NCCN(C)C)c3)c2)C[C@H]2C[C@@H]1C2(C)C [Compound 107]
< 800 | ♯ | C[C@@H]1[C@@H](NC(=O)[C@@H]2[C@H]([C@H](C)O)[C@H](CO)ON2Cc2cccc(NCCCN(C)C)c2)C[C@H]2C[C@@H]1C2(C)C [Compound 582]
< 800 | ♯ | COc1ccc(C(O)C#Cc2cccc(CN3O[C@H](CO)[C@H]([C@@H](C)O)[C@@H]3C(=O)NCCCN(C)c3ccccc3)c2)c(C)c1 (stereo partly shown) [Compound 247]
< 800 | ♯ | CC(=O)NCCNC(=O)c1cccc(-c2cccc(CN3O[C@@H](CO)[C@@H]([C@H](C)O)[C@H]3C(=O)N[C@H]3C[C@H]4C[C@@H]([C@@H]3C)C4(C)C)c2)c1 [Compound 146]
< 800 | ♯ | C[C@@H]1[C@@H](NC(=O)[C@@H]2[C@H]([C@H](C)O)[C@H](CO)ON2CCCCN(CCN(C)C)Cc2ccccc2-c2ccccc2)C[C@H]2C[C@@H]1C2(C)C [Compound 551]
< 800 | ♯ | COCCNC(=O)c1cccc(-c2cccc(CN3O[C@@H](CO)[C@@H]([C@H](C)O)[C@H]3C(=O)N[C@H]3C[C@H]4C[C@@H]([C@@H]3C)C4(C)C)c2)c1 [Compound 153]
< 800 | ♯ | CCN(CC)C(=O)c1ccc(-c2cccc(CN3O[C@@H](CO)[C@@H]([C@H](C)O)[C@H]3C(=O)N[C@H]3C[C@H]4C[C@@H]([C@@H]3C)C4(C)C)c2)cc1 [Compound 108]
< 800 | ♯ | COc1ccc(Br)cc1CN(Cc1cccc(CN2OC(CO)C(C(C)O)C2C(=O)NC2CC3CC(C2C)C3(C)C)c1)C(CC(C)C)CN(C)C (stereo not shown) [Compound 335]
< 800 | ♯♯ | C[C@@H]1[C@@H](NC(=O)[C@@H]2[C@H]([C@H](C)O)[C@H](CO)ON2Cc2cccc(-c3cccc(C(=O)NCCN4CCOCC4)c3)c2)C[C@H]2C[C@@H]1C2(C)C [Compound 132]
< 800 | ♯ | CCN(CC)CCN(CCN(CC)CC)C(=O)c1ccc(-c2cccc(CN3O[C@@H](CO)[C@@H]([C@H](C)O)[C@H]3C(=O)N[C@H]3C[C@H]4C[C@@H]([C@@H]3C)C4(C)C)c2)cc1 [Compound 188]
< 800 | ♯ | CC(C)CC(CN(C)C)N(Cc1cccc(CN2OC(CO)C(C(C)O)C2C(=O)NC2CC3CC(C2C)C3(C)C)c1)Cc1ccc(F)cc1O (stereo not shown) [Compound 329]
< 800 | ♯♯ | C[C@@H]1[C@@H](NC(=O)[C@@H]2[C@H]([C@H](C)O)[C@H](CO)ON2Cc2cccc(-c3cccc(O)c3)c2)C[C@H]2C[C@@H]1C2(C)C [Compound 147]
< 800 | ♯ | C[C@H](O)[C@@H]1[C@H](CO)ON(Cc2cccc(-c3ccc(C(=O)N[C@H]4CCN(C)C4)cc3)c2)[C@@H]1C(=O)NC1C[C@H]2C[C@@H]([C@@H]1C)C2(C)C (stereo partly shown) [Compound 231]
< 800 | ♯ | CC(O)C1C(CO)ON(Cc2cccc(C(=O)NC(CCc3ccccc3)CN(C)C)c2)C1C(=O)NC1CC2CC(C1C)C2(C)C (stereo not shown) [Compound 511]
< 800 | ♯ | CC(C)CC(CN(C)C)N(Cc1cccc(CN2OC(CO)C(C(C)O)C2C(=O)NC2CC3CC(C2C)C3(C)C)c1)CC1CCCC1 (stereo not shown) [Compound 308]
< 800 | ♯ | C[C@@H]1[C@@H](NC(=O)[C@@H]2[C@H]([C@H](C)O)[C@H](CO)ON2Cc2cccc(-c3cccc(C(=O)NCCN(CCO)CCO)c3)c2)C[C@H]2C[C@@H]1C2(C)C [Compound 131]
< 800 | ♯ | CC(C)NC(=O)c1cccc(-c2cccc(CN3O[C@@H](CO)[C@@H]([C@H](C)O)[C@H]3C(=O)N[C@H]3C[C@H]4C[C@@H]([C@@H]3C)C4(C)C)c2)c1 [Compound 217]
< 800 | ♯♯ | C[C@@H]1[C@@H](NC(=O)[C@@H]2[C@H]([C@H](C)O)[C@H](CO)ON2Cc2cccc(-c3ccc(S(=O)(=O)N(C)C)cc3)c2)C[C@H]2C[C@@H]1C2(C)C [Compound 130]
< 800 | ♯ | CC(O)C1C(CO)ON(Cc2cccc(CN(C)CC(=O)N(C)C)c2)C1C(=O)NC1CC2CC(C1C)C2(C)C (stereo not shown) [Compound 446]
